These are literature values, as cited in PubChem BioAssay AID1259410 (Chemical Carcinogenesis Research Information System (CCRIS), 2018).

This series relates to rodent tumor promotion studies, tumor incidence. The series is described as follows: CCRIS tumor promotion studies. The following applies: Doses [Promoter]: 0.

As to `Nc1nc(-c2ccccc2)c(-c2ccccc2)s1`, the outcome is given as “kidney: renal cell tumor” (Carcinogen: N-ETHYL-N-HYDROXYETHYLNITROSAMINE, 13147-25-6, Doses [Carcinogen]: 1000 PPM IN DRINKING WATER FOR 2 WK, 1.06% IN DIET FOR 14 WK BEGINNING POST CARCINOGEN TREATMENT (STUDY DURATION: 32 WK), Route [Carcinogen]: ORAL, Route [Promoter]: ORAL, Species: RAT, Strain/Sex: WISTAR/MALE) and “kidney: renal cell tumor” (Carcinogen: N-ETHYL-N-HYDROXYETHYLNITROSAMINE, 13147-25-6, Doses [Carcinogen]: 1000 PPM IN DRINKING WATER FOR 2 WK, 1.06% IN DIET FOR 30 WK BEGINNING POST CARCINOGEN TREATMENT (STUDY DURATION: 32 WK), Route [Carcinogen]: ORAL, Route [Promoter]: ORAL, Species: RAT, Strain/Sex: WISTAR/MALE).

Take `CCCCCCCCCC1(CCCCCC(=O)OC2C(C)C3(O)C(C=C(CO)CC4(O)C(=O)C(C)=CC43)C3C(C)(C)C23OC(C)=O)OCC(C)(C)N1[O]` (stereo not given): the outcome (Carcinogen: 7,12-DIMETHYLBENZ[A]ANTHRACENE, 57-97-6, Doses [Carcinogen]: 100 NMOL ONCE, 5 NMOL 2/WK FOR 24 WK BEGINNING 1 WK POST CARCINOGEN DOSE (STUDY DURATION: 25 WK), Route [Carcinogen]: DERMAL, Route [Promoter]: DERMAL, Species: MOUSE, Strain/Sex: NMRI/FEMALE) is on record as “skin: tumor”.

Take `C=C(CC(=O)OC)C(=O)OC`: the outcome (Carcinogen: N-METHYLNITROSOUREA, 684-93-5, Doses [Carcinogen]: 100 PPM IN DRINKING WATER FOR 15 WK, 0.5% IN DRINKING WATER FOR 37 WK BEGINNING POST CARCINOGEN TREATMENT (STUDY DURATION: 52 WK), Route [Carcinogen]: ORAL, Route [Promoter]: ORAL, Species: RAT, Strain/Sex: F344/MALE) is listed as “glandular stomach: adenoma, carcinoma”.

In the case of `CNc1ccccc1C(=O)O[C@@H]1[C@@H](C)[C@@]2(O)[C@@H](C=C(CO)C[C@]3(O)C(=O)C(C)=C[C@@H]23)[C@@H]2C(C)(C)[C@]12OC(C)=O`, the outcome (Carcinogen: 7,12-DIMETHYLBENZ[A]ANTHRACENE, 57-97-6, Doses [Carcinogen]: 10 NMOL ONCE, 3.3 NMOL 2/WK FOR 20 WK (STUDY DURATION: 20 WK), Route [Carcinogen]: DERMAL, Route [Promoter]: DERMAL, Species: MOUSE, Strain/Sex: SENCAR) is reported as “skin: papilloma”.
